Results published in US11420944B2, “Voltage-dependent t-type calcium channel blocker” (Nippon Chemiphar Co., Ltd., priority 2016, dated 2022).

Legend:
[1] = system: mouse PSNL model; assay: Mechanical allodynia in mouse PSNL model, peroral administration; format: in vivo; settings: perorally administered, 10 mg/kg and 30 mg/kg, compared to the vehicle group
Procedure: Mechanical Allodynia in Mouse PSNL Model
Production of a mouse PSNL model was carried out according to the method of Seltzer, et al. A mouse was subjected to inhalation anesthesia with isoflurane. The femoral region of the mouse was shaved and disinfected with isodine. The skin on the thighbone of the mouse was incised, the fascia underneath the skin was cut, and the biceps femoris muscle was divided at a site between the heads of muscles. The sciatic nerve underneath the incision was checked, and then the sciatic nerve was detached without damaging the nerve. The needle of an 8-0 silk suture with a needle was passed through the sciatic nerve so as to penetrate through the nerve, and thus a portion of about ½ to ⅓ of the sciatic nerve was ligated. The skin was sutured, and the mouse was kept for about 7 days. The surgery of a Sham control mouse was performed only for checking of the sciatic nerve, and the skin was sutured.
The measurement of pain threshold was carried out after the mouse was transferred into a cage for measurement and was waited until exploratory behavior had disappeared. […] The 50% threshold was calculated by an up-down method by referring to the method of Chaplan, et al. (Quantitative assessment of tactile allodynia in the […]. J Neurosci Methods, 53, 1994, 55-63). […]

[2] = target: T1, human Cav3.2 channels (Homo sapiens, UniProt O95180); assay: Intracellular calcium concentration measurement (Fluo-4 AM) in stable cells expressing human Cav3.2 channels, buffer A / buffer B; format: cell-based; settings: Tables 2 to 6; buffer A, equilibrium potential of potassium −92 mV; read-out: Inhibitory action of buffer A (inactivated state)
T1 construct: expressed in transfected cells; host or cells: HEK293 cells (ATCC No. CRL-1573), plasmid pcDNA3.1(+)
How it was run: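 State-dependent Cav3.2 inhibition compared in two buffers differing in potassium equilibrium potential (−92 vs −110 mV). Stable HEK293 line, Fluo-4 dye; compound 15 min, room temperature, dark, then KCl addition (83.8 or 91.8 mM) triggers calcium influx read 10 s; IC50 from peak increment over baseline.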

[3] = target: T1, human Cav3.2 channels; assay: Electrophysiological evaluation, whole-cell patch-clamp with automatic patch-clamp system; format: cell-based
How it was run: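 Stable human Cav3.2 cell line, automated whole-cell patch clamp at room temperature. Peak inward current on 100 msec steps to −20 mV every 10 sec; five concentrations applied cumulatively by perfusion. Inhibition scored at 0.3 μM compound from −80 mV holding, or 3 μM from −100 mV.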

[4] = target: T2, CYP3A4 (Homo sapiens, UniProt P08684); assay: Evaluation of CYP3A4 activity inhibitory action; format: in vitro ADME; settings: Human CYP3A4BR EasyCYP Bactosomes, 7-Benzyloxy-4-(trifluoromethyl)-coumarin
T2 construct: purchased Cypex, Ltd; host or cells: E. coli membranes (Bactosomes)
Procedure: Evaluation of CYP3A4 Activity Inhibitory Action
To a 50 mM potassium phosphate buffer solution (pH 7.4), 5 nM Human CYP3A4BR EasyCYP Bactosomes (Cypex, Ltd.), 50 μM 7-Benzyloxy-4-(trifluoromethyl)-coumarin, cofactor mix (0.0081 mM β-NADP^+, 0.4 mM G-6-P, 0.4 mM MgCl2, and 0.2 U/mL G-6-P DH(Y)), and 0.01% Pluronic F-127 were added, and the mixture was incubated for 45 minutes at 37° C. The reaction was initiated by adding the cofactor mix. After the incubation, 0.5 M Tris base/acetonitrile (20:80) was added thereto as a reaction terminating liquid, and the resulting mixture was stirred. Subsequently, the fluorescence intensity (excitation: 405 nm, emission: 535 nm) was measured. The reaction was carried out in duplicate. The results are presented as the inhibition rate at 10 μM of the test compound.

T1 sequence (O95180 whole entry): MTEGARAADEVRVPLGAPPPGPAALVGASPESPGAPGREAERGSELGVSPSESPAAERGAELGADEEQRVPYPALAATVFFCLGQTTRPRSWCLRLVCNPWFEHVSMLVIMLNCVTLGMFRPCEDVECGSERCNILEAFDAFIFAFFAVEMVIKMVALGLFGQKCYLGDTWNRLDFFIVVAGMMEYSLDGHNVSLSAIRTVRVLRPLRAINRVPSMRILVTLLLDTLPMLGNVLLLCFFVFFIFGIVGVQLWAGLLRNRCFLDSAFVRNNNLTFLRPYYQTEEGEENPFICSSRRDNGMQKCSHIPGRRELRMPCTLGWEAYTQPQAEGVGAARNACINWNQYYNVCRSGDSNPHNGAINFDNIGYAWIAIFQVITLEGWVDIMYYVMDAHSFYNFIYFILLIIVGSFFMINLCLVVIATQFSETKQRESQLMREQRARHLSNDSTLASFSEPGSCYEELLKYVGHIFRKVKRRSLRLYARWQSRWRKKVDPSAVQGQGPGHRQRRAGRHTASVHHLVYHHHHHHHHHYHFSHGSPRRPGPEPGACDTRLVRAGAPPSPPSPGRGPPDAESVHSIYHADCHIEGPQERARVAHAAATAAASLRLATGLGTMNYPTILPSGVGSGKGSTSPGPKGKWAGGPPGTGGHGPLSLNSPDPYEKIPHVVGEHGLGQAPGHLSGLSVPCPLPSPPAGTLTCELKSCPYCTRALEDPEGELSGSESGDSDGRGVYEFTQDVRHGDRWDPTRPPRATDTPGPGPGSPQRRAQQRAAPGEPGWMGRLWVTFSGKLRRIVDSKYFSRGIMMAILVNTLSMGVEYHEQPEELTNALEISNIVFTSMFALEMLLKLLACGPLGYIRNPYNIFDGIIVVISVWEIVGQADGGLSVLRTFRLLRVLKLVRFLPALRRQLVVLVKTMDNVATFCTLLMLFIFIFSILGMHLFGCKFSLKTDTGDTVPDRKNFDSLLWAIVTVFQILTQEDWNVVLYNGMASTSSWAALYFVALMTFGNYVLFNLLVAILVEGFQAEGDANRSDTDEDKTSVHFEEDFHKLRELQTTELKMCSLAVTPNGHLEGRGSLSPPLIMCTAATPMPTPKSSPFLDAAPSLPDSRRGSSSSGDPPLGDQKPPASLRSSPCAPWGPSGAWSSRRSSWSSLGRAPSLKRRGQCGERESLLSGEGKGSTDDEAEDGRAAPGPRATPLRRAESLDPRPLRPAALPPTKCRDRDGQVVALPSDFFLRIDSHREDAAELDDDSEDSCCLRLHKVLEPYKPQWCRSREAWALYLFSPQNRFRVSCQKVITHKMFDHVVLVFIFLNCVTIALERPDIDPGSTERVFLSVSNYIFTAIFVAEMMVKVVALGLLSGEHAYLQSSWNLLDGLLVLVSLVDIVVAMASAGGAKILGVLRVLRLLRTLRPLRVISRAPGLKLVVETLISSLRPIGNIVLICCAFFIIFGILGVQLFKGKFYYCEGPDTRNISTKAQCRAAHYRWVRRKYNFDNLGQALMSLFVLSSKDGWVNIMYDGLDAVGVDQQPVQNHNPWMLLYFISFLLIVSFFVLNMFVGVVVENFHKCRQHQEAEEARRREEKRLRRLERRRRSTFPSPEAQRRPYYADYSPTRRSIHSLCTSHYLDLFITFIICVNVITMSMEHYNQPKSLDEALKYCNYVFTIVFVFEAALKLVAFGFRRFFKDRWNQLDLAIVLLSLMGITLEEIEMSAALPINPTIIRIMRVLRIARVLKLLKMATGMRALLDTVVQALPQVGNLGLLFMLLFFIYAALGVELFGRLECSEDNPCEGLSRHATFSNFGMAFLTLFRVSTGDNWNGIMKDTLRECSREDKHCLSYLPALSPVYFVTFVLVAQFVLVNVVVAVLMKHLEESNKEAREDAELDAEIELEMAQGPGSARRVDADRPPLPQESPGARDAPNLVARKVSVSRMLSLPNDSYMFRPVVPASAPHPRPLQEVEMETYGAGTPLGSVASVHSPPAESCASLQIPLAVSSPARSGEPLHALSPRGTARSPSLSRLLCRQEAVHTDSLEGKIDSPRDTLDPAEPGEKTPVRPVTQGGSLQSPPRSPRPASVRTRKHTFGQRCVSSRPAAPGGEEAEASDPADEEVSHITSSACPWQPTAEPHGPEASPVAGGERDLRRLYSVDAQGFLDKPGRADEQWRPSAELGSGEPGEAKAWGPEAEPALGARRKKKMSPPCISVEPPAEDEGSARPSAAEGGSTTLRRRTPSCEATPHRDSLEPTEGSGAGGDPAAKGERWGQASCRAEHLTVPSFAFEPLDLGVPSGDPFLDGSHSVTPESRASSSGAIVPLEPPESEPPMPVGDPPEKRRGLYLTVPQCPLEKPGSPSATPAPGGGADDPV
T2 sequence (P08684 whole entry): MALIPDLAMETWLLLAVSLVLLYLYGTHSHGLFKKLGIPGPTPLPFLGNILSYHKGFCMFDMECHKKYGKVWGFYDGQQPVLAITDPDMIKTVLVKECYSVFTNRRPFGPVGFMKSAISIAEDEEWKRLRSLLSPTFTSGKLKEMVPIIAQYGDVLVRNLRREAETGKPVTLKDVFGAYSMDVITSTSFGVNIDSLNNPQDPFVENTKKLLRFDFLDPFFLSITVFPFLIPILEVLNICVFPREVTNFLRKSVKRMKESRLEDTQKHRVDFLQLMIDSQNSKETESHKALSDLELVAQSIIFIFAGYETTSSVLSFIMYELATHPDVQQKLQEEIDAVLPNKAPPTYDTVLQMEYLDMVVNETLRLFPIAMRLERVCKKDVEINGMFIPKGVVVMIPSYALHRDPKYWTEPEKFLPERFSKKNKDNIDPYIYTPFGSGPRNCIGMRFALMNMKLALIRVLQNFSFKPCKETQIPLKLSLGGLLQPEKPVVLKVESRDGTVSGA

C[C@@H](NC(=O)[C@H]1C[C@@H]1c1nc2ccccc2[nH]1)c1cc2cc(F)ccc2o1 [Example 65, (1S,2S)-2-(1H-benzo[d]imidazol-2-yl)-N—((R)-1-(5-fluorobenzofuran-2-yl)ethyl)cyclopropane-1-carboxamide]
mechanical allodynia (pain threshold, von Frey filament test) [1]: suppressed mechanical allodynia statistically significantly
IC50 [2]: ≤ 100 nM
inhibition at 0.3 µM ([3]; 0.3 μM, holding potential −80 mV, read-out: Cav3.2 channel current inhibition ratio at 0.3 μM of test compound (holding potential −80 mV)): 81%
Cav3.2 channel current inhibition ratio at 3 μM of test compound (holding potential −100 mV) ([3]; 3 μM, holding potential −100 mV): 49%
CYP3A4 activity inhibition ratio at 10 μM of test compound [4]: 4.2%
